The values below are quoted from earlier work in patent publication US8609668B2, “Substituted triazolo[1,5-A]pyrimidines as antiviral agents” (Philadelphia Health & Education Corporation, priority 2006, dated 2013).

The structures appear in SMILES notation.

For the data set, the system named is HBeAg secretion. Conditions: in vivo and in vitro.

Consider `O=c1oc2c(O)c(O)cc3c(=O)oc4c(O)c(O)cc1c4c23` [Ellagic acid], for which the “secretion of HBeAg” value is on record as “specifically inhibit secretion of HBeAg”.
